Reference: the supplement of paper PMC10307832

Each cell line was assayed with CC1=C(N=C(N=C1N)[C@H](CC(=O)N)NC[C@@H](C(=O)N)N)C(=O)N[C@@H]([C@H](C2=CN=CN2)OC3C(C(C(C(O3)CO)O)O)OC4C(C(C(C(O4)CO)O)OC(=O)N)O)C(=O)N[C@H](C)[C@H]([C@H](C)C(=O)N[C@@H]([C@@H](C)O)C(=O)NCCC5=NC(=CS5)C6=NC(=CS6)C(=O)NCCC[S+](C)C)O [Bleomycin] + CS(=O)(=O)N1CCN(Cc2cc3nc(-c4cccc5[nH]ncc45)nc(N4CCOCC4)c3s2)CC1 [Pictilisib] (partner 1 µM) (assay: relative viability (nuclei count vs DMSO), 5 days (fraction); higher = more cells survive). Details: first compound 1 µM; main component drawn.
Summary of the method: (§1)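 Relative viability divides the nuclei count in treated wells by that in vehicle wells. Lung cancer cell lines were seeded in 1536-well plates, dosed by pin tool the next day, and fixed and stained after 5 days in one step with final 0.05% Triton X-100, 1% formaldehyde and 1 ug/ml Hoechst. Dosing was a single drug or a fixed anchor-drug dose plus five library-drug doses (not always all listed) in √10 steps, and values are medians of duplicate plates imaged at 4×.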

Row | Cell Line | relative viability
1 | NCI-H1563 | 0.533

The cell lines below were run with COc1cc([C@@H]2c3cc4c(cc3[C@@H](O[C@@H]3O[C@@H]5CO[C@@H](C)O[C@H]5[C@H](O)[C@H]3O)[C@H]3COC(=O)[C@H]23)OCO4)cc(OC)c1O [Etoposide] + CS(=O)(=O)CCNCc1ccc(-c2ccc3ncnc(Nc4ccc(OCc5cccc(F)c5)c(Cl)c4)c3c2)o1 [Lapatinib] (partner 2 µM) in the same assay as above. Details: first compound 0.01 µM.
Summary of the method: as §1

Row | Cell Line | relative viability
2 | NCI-H1734 | 0.971
3 | NCI-H520 | 0.839
4 | NCI-H2405 | 1.16
5 | SW 1573 | 1.03
6 | NCI-H1395 | 0.907
7 | 201T | 1.07
8 | NCI-H1915 | 0.907
9 | HCC-827 | 0.172
10 | LXF-289 | 0.88
11 | NCI-H2347 | 1.13
12 | NCI-H1299 | 0.952
13 | NCI-H650 | 0.657
14 | CAL-12T | 0.73
15 | NCI-H1651 | 0.753
16 | EPLC-272H | 0.862
17 | NCI-H23 | 1.11
18 | NCI-H1792 | 0.939
19 | NCI-H1355 | 1.09
20 | NCI-H322M | 0.558
21 | NCI-H1437 | 0.754
22 | NCI-H1755 | 1.06
23 | NCI-H2023 | 0.886
24 | HCC-15 | 0.849
25 | NCI-H1793 | 0.543
26 | PC-3 [JPC-3] | 0.432
27 | EKVX | 0.195
28 | LC-2-ad | 0.867
29 | NCI-H1563 | 0.935

Same assay, conditions: first compound 0.03162 µM

Row | Cell Line | relative viability
30 | NCI-H1734 | 1.05
31 | NCI-H520 | 0.829
32 | NCI-H2405 | 1.24
33 | SW 1573 | 1.12
34 | NCI-H1395 | 1.09
35 | 201T | 1.05
36 | NCI-H1915 | 1.03
37 | HCC-827 | 0.262
38 | LXF-289 | 0.972
39 | NCI-H2347 | 0.835
40 | NCI-H1299 | 0.983
41 | NCI-H650 | 0.951
42 | CAL-12T | 0.688
43 | NCI-H1651 | 0.774
44 | EPLC-272H | 1.05
45 | NCI-H23 | 1.04
46 | NCI-H1792 | 0.832
47 | NCI-H1355 | 1.03
48 | NCI-H322M | 0.596
49 | NCI-H1437 | 0.837
50 | NCI-H1755 | 1.13
51 | NCI-H2023 | 0.895
52 | HCC-15 | 0.832
53 | NCI-H1793 | 0.682
54 | PC-3 [JPC-3] | 0.487
55 | EKVX | 0.197
56 | LC-2-ad | 0.961
57 | NCI-H1563 | 0.868

Same assay, conditions: first compound 0.1 µM

Row | Cell Line | relative viability
58 | NCI-H1734 | 0.612
59 | NCI-H520 | 0.563
60 | NCI-H2405 | 0.746
61 | SW 1573 | 0.576
62 | NCI-H1395 | 0.969
63 | 201T | 0.916
64 | NCI-H1915 | 0.913
65 | HCC-827 | 0.205
66 | LXF-289 | 0.953
67 | NCI-H2347 | 0.547
68 | NCI-H1299 | 1.03
69 | NCI-H650 | 0.409
70 | CAL-12T | 0.434
